According to paper PMC3793924, “Targeting Androgen Receptor/Src Complex Impairs the Aggressive Phenotype of Human Fibrosarcoma Cells” (PLoS ONE, 2013):

Tests used:
[1] = tested on: HT1080 cell xenografts; test: HT1080 cell xenografts in nude male mice, tumor mass; type: in vivo; conditions: i.p. on alternate days for 4 weeks, Casodex 0.1 μg/mice (4 µg/Kg), DHT 0,1 μg/mice (3 μg/Kg), six animals per group
Description: Figure 1 Casodex inhibits the EGF-triggered DNA synthesis in human fibrosarcoma HT1080 cells and reduces the growth of HT1080 xenografts. Human fibrosarcoma HT1080 cells were used. In A, quiescent cells on coverslips were left un-stimulated or stimulated for 18 h with the indicated compounds. […] After in vivo pulse with BrdU (100 μM; Sigma), BrdU incorporation was analyzed by IF and expressed as % of total nuclei. Several independent experiments were performed in duplicate and the results were derived from at least 400 scored cells for each coverslip. Mean and SEM are shown. n represents the number of experiments. (**) p value< 0,001. […] In B, xenografts were established in nude male mice as described in Methods. […] Volumes of HT1080 cell xenografts were measured at the indicated times in two dimensions by a caliper and expressed as tumor mass (mm^3). […]
HT1080 cells in 50% (v/v) Matrigel solution in phosphate-buffered saline (PBS; pH 7.4) were subcutaneously injected in the dorsal posterior region at 2.5 x 10^6 cells/male athymic mice (CD mice, Charles-River Italia) without hormone priming. […] The tumor volumes of HT1080 cell xenografts were measured at indicated intervals in two dimensions by a caliper and expressed as tumor mass (mm^3). This is calculated according to the formula: a^2 × b × 0.5, where a is the width and b is the length of the tumor. […]

[2] = tested on: HT1080 cells; test: BrdU incorporation (DNA synthesis) in quiescent HT1080 cells; type: cell-based, human; conditions: 18 h, R1881 and DHT 10 nM, EGF 100 ng/ml
Description: Human fibrosarcoma HT1080 cells were used. In A, quiescent cells on coverslips were left un-stimulated or stimulated for 18 h with the indicated compounds. […] After in vivo pulse with BrdU (100 μM; Sigma), BrdU incorporation was analyzed by IF and expressed as % of total nuclei. Several independent experiments were performed in duplicate and the results were derived from at least 400 scored cells for each coverslip. Mean and SEM are shown. n represents the number of experiments. […] In B, xenografts were established in nude male mice as described in Methods. On alternate days, animals were intra-peritoneally injected with vehicle alone (vehicle), or the pure androgen antagonist Casodex (Cx: 0.1 μg/mice; 4µg/Kg body weight), or DHT (DHT: 0,1 μg/mice; 3 μg/Kg body weight) alone. Volumes of HT1080 cell xenografts were measured at the indicated times in two dimensions by a caliper and expressed as tumor mass (mm^3). Mean and SEM are shown. n represents the number of experiments.
Quiescent HT1080 cells were used. […] Casodex (at 10 μM) was used for comparison with the S1 peptide. Upper section in A, Western blot of HT1080 cell lysates with anti-EGFR antibody. […] In B, lysates were immune-precipitated with the anti-Src MAb and Src activity in immune complexes was assayed using acidified enolase, as a substrate. In C, cells on coverslips were left untreated or treated for 18 h with the indicated compounds. After in vivo pulse with BrdU (100 μM), BrdU incorporation was analyzed by IF and expressed as % of total nuclei. Several independent experiments were performed in duplicate and the results were obtained from at least 500 scored cells for each coverslip. Mean and SEM are shown. n represents the number of experiments.

[3] = tested on: HT1080 cells; test: Trans-well migration/invasiveness of HT1080 cells; type: cell-based, human; conditions: HT1080 cells, 10 nM R1881, 6 h, collagen pre-coated Trans-well filters
[4] = tested on: NIH3T3 cells; test: BrdU incorporation in NIH3T3 fibroblasts; type: cell-based, mouse; conditions: quiescent NIH3T3 cells, 18 h; EGF 100 ng/ml; R1881 10 nM
Description: NIH3T3 cells were used. In A, cells were transfected with 3416 or 3424 ARE-Luc constructs with or without hAR-expressing plasmid and then made quiescent as reported in Methods. Cells were left unstimulated or stimulated for 18 h with 10 nM R1881. Luciferase activity was assayed, normalized using beta-gal as an internal control, and expressed as fold induction. Three independent experiments were performed in triplicate. Means and SEM are shown; n represents the number of experiments. […] After in vivo labeling with BrdU (100 μM), BrdU incorporation was analyzed by IF and expressed as % of total cells. Several independent experiments were performed in duplicate and data derived from at least 700 scored cells for each coverslip. Mean and SEM are shown. n represents the number of experiments. […] Quiescent NIH3T3 fibroblasts were used. In C, cells on coverslips were left unstimulated or stimulated for 18 h with the indicated compounds. […] After in vivo pulse with BrdU (100 μM), BrdU incorporation was analyzed by IF and expressed as % of total cells. Several independent experiments were performed in duplicate and the results were derived from at least 500 scored cells for each coverslip. Mean and SEM are shown. n represents the number of experiments. […] The Western blot of MCF-7 cell lysate with the anti-tubulin or the anti-EGFR antibody is shown for comparison. In D, cells were left untreated or treated for 6 h with the indicated compounds. […] Cells were allowed to migrate in collagen pre-coated Trans-well filters. Migrated cells were stained and counted as reported in Methods. Results were derived from several independent experiments, each performed in duplicate. Data are expressed as relative increase. Mean and SEM are shown. n represents the number of experiments. […] (PPTX) Click here for additional data file.

SMILES | Growth of HT1080 xenografts (tumor mass) [1] | BrdU incorporation (DNA synthesis) upon stimulation with the compound alone [2] | Cell motility upon androgen challenge (Trans-well) [3] | BrdU incorporation (DNA synthesis) upon stimulation with the compound alone [4]
C[C@]12CCC(=O)C[C@@H]1CC[C@@H]1[C@@H]2CC[C@]2(C)[C@@H](O)CC[C@@H]12 [DHT] | slightly affected this increase | unable to mediate DNA synthesis | – | –
C[C@]1(O)CC[C@H]2[C@@H]3CCC4=CC(=O)CCC4=C3C=C[C@@]21C [R1881] | – | unable to mediate DNA synthesis | robustly increases cell motility | does not induce DNA synthesis
